{"source": "patent US20220305028A1", "about": "“METHOD FOR PREPARING A LIPOSOMAL COMPOSITION COMPRISING LATANOPROST, AND THE PHARMACOLOGICALLY ACTIVE LIPOSOMAL COMPOSITION FOR OPHTHALMOTHERAPY PREPARED BY THIS METHOD” (CONSORTIUM \"UKRINDUSTRY\", priority 2021, published 2022)", "origin": "cited, not measured here", "conditions": "aqueous ophthalmic drops", "data": [{"smiles": "CC(C)OC(=O)CCC/C=C\\C[C@@H]1[C@@H](CC[C@@H](O)CCc2ccccc2)[C@H](O)C[C@@H]1O", "note": "[latanoprost, Latanoprost]", "values": [{"measurement": "penetration of the latanoprost from the drops through a corneal epithelium", "result": "not more than 5 % of the administered amount"}]}]}
